According to US8455497B2, “Inhibitors of aspartyl protease” (Vertex Pharmaceuticals Incorporated, priority 1999, dated 2013):
pIC50: −log10 of the molar value. Read-outs that look alike come from different tables or passages of the source.

Columns and labels:
[1] = test system: EP13 multi protease inhibitor resistant virus; assay: Anti-viral activity against resistant virus EP13 in MT4 cells; assay type: cell-based, HIV-1
Protocol: (§1) Exponentially growing MT4 cells were harvested and centrifuged at 1000 rpm for 10 min in a Jouan centrifuge (model CR 4 12). […] Cell aliquots were infected by the addition of HIV-1 (strain IIIB) diluted to give a viral multiplicity of infection of 100×TCID50. […] Cell infection was allowed to proceed for 1 hr at 37° in a tissue culture incubator with humidified 5% CO2 atmosphere. After the 1 hr incubation the virus/cell suspensions were diluted 6-fold with fresh medium, and 125 μl of the cell suspension was added to each well of the plate containing pre-diluted compound. Plates were then placed in a tissue culture incubator with humidified 5% CO2 for 5 days. At the end of the incubation period, 27 μl of 5% Nonidet-40 was added to each well of the incubation plate. After thorough mixing with a Costar multitip pipetter, 60 μl of the mixture was transferred to filter-bottomed 96-well plates. The plates were analyzed in an automated assay instrument (Screen Machine, Idexx Laboratories). The assay makes use of a propidium iodide dye to estimate the DNA content of each well.
(§2) Anti-Viral Activity Against Resistant Viruses
EP13 and DS45701, two multi protease inhibitor resistant viruses were used to assess potency against mutant viruses. These viruses contain the following mutations relative to the consensus sequence of wild type virus:
EP13: Protease amino acid sequence: M46I, L63P, A71V, V82F/L, I84V; No reverse transcriptase mutations.

[2] = test system: D545701-14 multi protease inhibitor resistant virus; assay: Anti-viral activity against resistant virus D545701-14 in MT4 cells; assay type: cell-based, HIV-1
Protocol: as §1, §2
EP13 and DS45701, two multi protease inhibitor resistant viruses were used to assess potency against mutant viruses. These viruses contain the following mutations relative to the consensus sequence of wild type virus: […]

HIV-1 (strain IIIB) = assay: Antiviral activity assay in MT4 cells (propidium iodide based); assay type: cell-based; conditions: wild type HIV-1 virus, MT4 cells, read-out: Wildtype virus - IC50
Summary of the method: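 Compound serial dilutions in RPMI/FCS received MT4 cells pre-infected 1 hr at 37°C with HIV-1 IIIB at 100×TCID50. After 5 days' culture and Nonidet-40 lysis, well DNA content was measured by propidium iodide dye; mock-infected cells served as control.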

[3] = Human immunodeficiency virus 1, MT4, read-out: EP13 mutant IC50, EP13 multi protease inhibitor resistant virus, MT4 cells
[4] = Human immunodeficiency virus 1, MT4, read-out: D545701-14 mutant - IC50, D545701-14 multi protease inhibitor resistant virus, MT4 cells
[5] = Human immunodeficiency virus 1, IIIB
[6] = EP13 multi protease inhibitor resistant virus, MT4 cells, read-out: EP13 mutant IC50
[7] = D545701-14 multi protease inhibitor resistant virus, MT4 cells, read-out: D545701-14 mutant - IC50
[8] = Human immunodeficiency virus 1, MT4, read-out: Reference data for protease inhibitors (EP13), EP13 mutant virus
[9] = Human immunodeficiency virus 1, MT4, read-out: Reference data for protease inhibitors (D545701-14), D545701-14 mutant virus

SMILES | pIC50 [1, 3] | pIC50 [2, 4] | pIC50 (HIV-1 (strain IIIB); [5]) | other results
CC(C)CN(C[C@@H](O)[C@H](Cc1ccc(OCc2cccc(C#N)c2)cc1)NC(=O)O[C@@H]1CO[C@H]2OCC[C@H]21)S(=O)(=O)c1ccc(N)cc1 [Compound 301, (3S,3aS,6aR)-hexahydrofuro[2,3-b]furan-3-yl (1S,2R)-3-[[(4-aminophenyl)sulfonyl](isobutyl)amino]-1-{4-[(3-cyanobenzyl)oxy]benzyl}-2-hydroxypropylcarbamate] | 8.00 to 9.00 | 8.00 to 9.00 | 8.00 to 9.00 | 
CC(C)CN(C[C@@H](O)[C@H](Cc1ccc(OCCO)cc1)NC(=O)O[C@H]1CO[C@H]2OCC[C@H]21)S(=O)(=O)c1ccc2c(c1)OCO2 [Compound 322, (3R,3aS,6aR)-Hexahydrofuro[2,3-b]furan-3-yl (1S,2R)-3-[(1,3-benzodioxol-5-ylsulfonyl)(isobutyl)amino]-2-hydroxy-1-[4-(2-hydroxyethoxy)benzyl]propylcarbamate] | 8.00 to 9.00 | 8.00 to 9.00 | 8.00 to 9.00 | 
CNC(=O)OCCCCOc1ccc(C[C@H](NC(=O)O[C@H]2CO[C@H]3OCC[C@H]32)[C@H](O)CN(CC(C)C)S(=O)(=O)c2ccc3c(c2)OCO3)cc1 [Compound 318, (3R,3aS,6aR)-Hexahydrofuro[2,3-b]furan-3-yl (1S,2R)-3-[(1,3-benzodioxol-5-ylsulfonyl)(isobutyl)amino]-2-hydroxy-1-[4-(4-{[(methylamino)carbonyl]oxy}butoxy)benzyl]propylcarbamate] | 8.00 to 9.00 | 8.00 to 9.00 | 8.00 to 9.00 | 
CC(=O)Oc1ccc(S(=O)(=O)N(CC(C)C)C[C@@H](O)[C@H](Cc2ccc(OCc3csc(C)n3)cc2)NC(=O)O[C@H]2CO[C@H]3OCC[C@H]32)cc1C [Compound 347, 4-{[((2R,3S)-3-({[(3R,3aS,6aR)-hexahydrofuro[2,3-b]furan-3-yloxy]carbonyl}amino)-2-hydroxy-4-{4-[(2-methyl-1,3-thiazol-4-yl)methoxy]phenyl}butyl)(isobutyl)amino]sulfonyl}-2-methylphenyl acetate] | 8.00 to 9.00 | 8.00 to 9.00 | 8.00 to 9.00 | 
CC(C)CN(C[C@@H](O)[C@H](Cc1ccc(OS(=O)(=O)c2ccc3c(c2)OCO3)cc1)NC(=O)O[C@H]1CO[C@H]2OCC[C@H]21)S(=O)(=O)c1ccc2c(c1)OCO2 [Compound 349, 4-{(2S,3R)-2-({[(3R,3aS,6aR)-hexahydrofuro[2,3-b]furan-3-yloxy]carbonyl}amino)-4-[(1,3-benzodioxol-5-ylsulfonyl)(isobutyl)amino]-3-hydroxybutyl}phenyl 1,3-benzodioxole-5-sulfonate] | 8.00 to 9.00 | 8.00 to 9.00 | 8.00 to 9.00 | 
CC(C)CN(C[C@@H](O)[C@H](Cc1ccc(OCc2ccccc2)cc1)NC(=O)O[C@H]1CO[C@H]2OCC[C@H]21)S(=O)(=O)c1ccc2c(c1)OCCO2 [Compound 365] | 8.00 to 9.00 | 8.00 to 9.00 | 8.00 to 9.00 | 
CC(C)CN(C[C@@H](O)[C@H](Cc1ccc(OCc2nnsc2Cl)cc1)NC(=O)O[C@H]1CO[C@H]2OCC[C@H]21)S(=O)(=O)c1ccc2c(c1)OCO2 [Compound 386, (3R,3aS,6aR)-hexahydrofuro[2,3-b]furan-3-yl (1S,2R)-3-[(1,3-benzodioxol-5-ylsulfonyl)(isobutyl)amino]-1-{4-[(5-chloro-1,2,3-thiadiazol-4-yl)methoxy]benzyl}-2-hydroxypropylcarbamate] | 8.00 to 9.00 | 7.00 to 8.00 | 8.00 to 9.00 | 
CC(C)CN(C[C@@H](O)[C@H](Cc1ccc(OCCNC(=O)N(C)C)cc1)NC(=O)O[C@H]1CO[C@H]2OCC[C@H]21)S(=O)(=O)c1ccc2c(c1)OCO2 [Compound 253] |  |  |  | pIC50 [1, 6]: 8.00 to 9.00; pIC50 [2, 7]: 8.00 to 9.00; pIC50 (HIV-1 (strain IIIB)): 7.00 to 8.00
CC(C)CN(C[C@@H](O)[C@H](Cc1ccc(OCCc2ccc(F)cc2)cc1)NC(=O)O[C@H]1CO[C@H]2OCC[C@H]21)S(=O)(=O)c1ccc2c(c1)OCO2 [Compound 205] |  |  |  | pIC50 [1, 6]: 7.00 to 8.00; pIC50 [2, 7]: 7.00 to 8.00; pIC50 (HIV-1 (strain IIIB)): 8.00 to 9.00
N#CCOc1ccc(C[C@H](NC(=O)O[C@H]2CO[C@H]3OCC[C@H]32)[C@H](O)CN(CC2CCCC2)S(=O)(=O)c2ccc3c(c2)OCO3)cc1 [Compound 397, (3R,3aS,6aR)-hexahydrofuro[2,3-b]furan-3-yl (1S,2R)-3-[(1,3-benzodioxol-5-ylsulfonyl)(cyclopentylmethyl)amino]-1-[4-(cyanomethoxy)benzyl]-2-hydroxypropylcarbamate] | 8.00 to 9.00 | 8.00 to 9.00 | 7.00 to 8.00 | 
CC(C)CN(C[C@@H](O)[C@H](Cc1ccc(OCCN/C(=N/C#N)Oc2ccccc2)cc1)NC(=O)O[C@H]1CO[C@H]2OCC[C@H]21)S(=O)(=O)c1ccc2c(c1)OCO2 [Compound 262, (3R,3aS,6aR)-hexahydrofuro[2,3-b]furan-3-yl (1S,2R)-3-[(1,3-benzodioxol-5-ylsulfonyl)(isobutyl)amino]-1-[4-(2-{[(E and/or Z)-(cyanoimino)(phenoxy)methyl]amino}ethoxy)benzyl]-2-hydroxypropylcarbamate] |  |  | 8.00 to 9.00 | pIC50 ([1]; Human immunodeficiency virus 1, MT4, read-out: EP13 mutant IC50): 8.00 to 9.00; pIC50 ([2]; Human immunodeficiency virus 1, MT4, read-out: D545701-14 mutant - IC50): 8.00 to 9.00
CC(C)CN(C[C@@H](O)[C@H](Cc1ccc(OCCCn2cccn2)cc1)NC(=O)O[C@H]1CO[C@H]2OCC[C@H]21)S(=O)(=O)c1ccc2c(c1)OCO2 [Compound 284, (3R,3aS,6aR)-hexahydrofuro[2,3-b]furan-3-yl (1S,2R)-3-[(1,3-benzodioxol-5-ylsulfonyl)(isobutyl)amino]-2-hydroxy-1-{4-[3-(1H-pyrazol-1-yl)propoxy]benzyl}propylcarbamate] | 8.00 to 9.00 | 8.00 to 9.00 | 8.00 to 9.00 | 
CC(C)CN(C[C@@H](O)[C@H](Cc1ccc(OCc2ccc(F)c(F)c2)cc1)NC(=O)O[C@H]1CO[C@H]2OCC[C@H]21)S(=O)(=O)c1ccc2c(c1)OCO2 [Compound 379, (3R,3aS,6aR)-hexahydrofuro[2,3-b]furan-3-yl (1S,2R)-3[(1,3-benzodioxol-5-ylsulfonyl)(isobutyl)amino]-1-{4-[(3,4-difluorobenzyl)oxy]benzyl}-2-hydroxypropylcarbamate] | 8.00 to 9.00 | 8.00 to 9.00 | 8.00 to 9.00 | 
CC(C)c1nc(CN(C)C(=O)N[C@H](C(=O)N[C@@H](Cc2ccccc2)C[C@H](O)[C@H](Cc2ccccc2)NC(=O)OCc2cncs2)C(C)C)cs1 [Ritonavir, reference compound] |  |  |  | pIC50 [1, 8]: < 6.22; pIC50 [2, 9]: < 5.00
CC(C)CN(C[C@@H](O)[C@H](Cc1ccc(OCCCc2ccccc2)cc1)NC(=O)O[C@H]1CO[C@H]2OCC[C@H]21)S(=O)(=O)c1ccc2c(c1)OCO2 [Compound 353, (3R,3aS,6aR)hexahydrofuro[2,3-b]furan-3-yl (1S,2R)-3-[(1,3-benzodioxol-5-ylsulfonyl)(isobutyl)amino]-2-hydroxy-1-[4-([3-phenylpropyl]oxy)benzyl]propylcarbamate] |  |  |  | pIC50 ([1]; read-out: EP13 mutant IC50, EP13 multi protease inhibitor resistant virus, MT4 cells): > 9.00; pIC50 ([2]; read-out: D545701-14 mutant - IC50, D545701-14 multi protease inhibitor resistant virus, MT4 cells): 8.00 to 9.00
CC(C)(C)NC(=O)[C@@H]1CN(Cc2cccnc2)CCN1C[C@@H](O)C[C@@H](Cc1ccccc1)C(=O)N[C@H]1c2ccccc2C[C@H]1O [Indinavir, reference compound] |  |  |  | pIC50 [1, 8]: 6.25; pIC50 [2, 9]: 6.15
